Consider 6 compounds from US20090048179A1, “USE OF 5-PHOSPHODIESTERASE INHIBITORS TO ENHANCE THE PERMEABILITY OF THE BLOOD-BRAIN BARRIER OF ABNORMAL BRAIN TISSUE AND THE BLOOD-TUMOR BARRIER” (CEDARS-SINAI MEDICAL CENTER, priority 2005, published 2009).

Counter-ions that a name gives are not always drawn. No end group written: not given here.

Data set [1] deals with 9L glioma. Description: Survival study, 9L/Fischer rats, treatment on days 7, 8 and 9 post tumor implantation. The class given is in vivo, rat. Particulars: treatment on days 7, 8 & 9; Levitra 10 mg/kg oral, Adriamycin 2 mg/kg i.v.; control 21.8. The source says: Adult, female Fischer rats (180-200 g) were implanted with 9L glioma cells (100,000 cells). […] 15, 2006.
Rats were monitored daily to determine survival times of the tumor-bearing rats for either death or when animals became moribund, euthanasia was employed.

Data set [2] concerns 9L gliosarcoma. Description: Survival study, 9L/Luc gliosarcoma-bearing rats, treatment for three days from day 4. Particulars: vardenafil 10 mg/kg oral, Adriamycin 2 mg/kg i.v., saline 32±2. The class given is in vivo, rat. The text has this:
A p-value of less than 0.05 was considered statistically significant.

Data set [3] deals with 9L gliosarcoma (9L/Luc). Description: Tumor size monitoring by bioluminescence imaging and histology. Conditions: day 9 after the last treatment; saline (2.21±1.27)×10^6.
The test system of data set [4] is caveolae endocytosis. Briefly: In vitro cellular transport of 14C-sucrose with inhibitor of caveolae endocytosis. The class given is cell-based. The source says: To determine whether this is the case for PDE5 inhibitors, the inventor used filipin, an inhibitor of caveolae endocytosis, in the in vitro cellular transport study (FIG. 21; P<0.05 vs. other two treatments). As shown, fillipin abolished the increased transport of ^14C-sucrose by sildenafil. […] As vesicular transport is not specific to brain microvessels per se, the inventor, while not wishing to be bound by any particular theory, believes the mechanism may be responsible for the increased cellular permeability by PDE5 inhibitors in non-CNS cells studied above.

Data set [5] deals with human breast cancer cell line MDA-MB-231. Description: In vitro 14C-sucrose transport across tumor cells in transwell, MDA-MB-231. The class given is cell-based. The procedure:
(§1) In addition to endothelial cells, the inventor tested whether the inhibition of PDE5 has any effect on tracer transport in other tumor cells. In the studies, two tumor cell lines (human brain metastatic lung cancer cell line CRL-5904 and human breast cancer cell line MDA-MB-231) were tested.

The subject of data set [6] is mouse brain endothelial cells. Description: In vitro cellular transport of 14C-sucrose, brain endothelial cells. The class given is cell-based.
Data set [7] has as its system blood-tumor barrier (BTB) of 9L gliosarcoma brain tumors. Description: [14C] sucrose transport (Ki) from blood into 9L brain tumors, quantitative autoradiography. The class given is in vivo, rat.
Data set [8] is described as follows: Animal physiologic parameters (mean arterial blood pressure, blood gases, side effects). The class given is in vivo, rat. Conditions: for reduction in mean-arterial blood pressure: BK femoral infusion, sildenafil 5-100 mg/kg or vardenafil 1-20 mg/kg oral; for detectable side effects (e.g. hypotension): oral doses used in the rats. The procedure: For Ki study described below, six days after tumor implantation, the rats were anesthetized with ketamine/xylazine. One femoral vein was cannulated for administration of the appropriate drug and the radiotracer; one femoral artery was cannulated to withdraw arterial blood, and another femoral artery was cannulated to monitor systemic blood pressure. Body temperature was maintained at 37° C., and arterial blood gases, blood pressure and hematocrit were monitored.
Mean-arterial blood pressures were decrease approximately 30% secondary to the femoral infusion of BK.

The subject of data set [9] is human brain metastatic lung cancer cell line CRL-5904. Briefly: In vitro 14C-sucrose transport across tumor cells in transwell, CRL-5904. The class given is cell-based. The procedure:
as §1

Data set [10] deals with vessel endothelial cells derived from lung tissues (PVEC). Briefly: In vitro cellular transport of 14C-sucrose, lung vessel endothelial cells. Particulars: PVECs. The class given is cell-based.
In data set [11] the test system is cGMP. Description: Plasma cGMP assay in 9L tumor-bearing rats. The class given is in vivo, rat. The procedure:
cGMP levels were determined using a ELISA-based kit (Cayman Chemical Co., Ann Arbor, Mich.) for plasma and immunohistocytochemistry with anti-cGMP antibody (Chemicon Corp.) for tissue sections.
Intracerebral inoculations of 9L tumor cells were performed as described above. […] Different groups of rats were anesthetized 5 minutes before and at 30, 60, 90 and 120 minutes after treatment respectively and the femoral vein was cannulated. Blood was collected and the plasma was separated. The cGMP concentration in the plasma was determined using a commercially available ^125I-labeled cGMP assay kit (Amersham, Arlington Heights, Ill.). cGMP content was expressed as pmol/ml of plasma.

Data set [12] deals with cGMP. Briefly: Brain cGMP immunohistochemistry in 9L tumor-bearing rats. The class given is in vivo, rat. Conditions: oral vardenafil 10 mg/kg.
Where [13] appears, read: femoral infusion of BK or oral sildenafil or vardenafil.

In the case of `COc1cccc2c1C(=O)c1c(O)c3c(c(O)c1C2=O)C[C@@](O)(C(=O)CO)C[C@@H]3O[C@H]1C[C@H](N)[C@H](O)[C@H](C)O1` [Adriamycin® (doxorubicin), doxorubicin hydrochloride], in data set [1], the “Mean Survival Days, Mean” value came out at 30 days. Also, in data set [2], the mean survival time came to 42 ± 2 days. Also, the “intracerebral tumor size (IVIS bioluminescence)” value in [3] is “(1.03±0.28)×10^6”.
With `CCCCC[C@@H](O)[C@H]1C(=O)O[C@H](C)[C@@H](O)/C=C/C=C/C=C/C=C/C=C(\C)[C@@H](O)C[C@H](O)C[C@H](O)C[C@H](O)C[C@H](O)C[C@H](O)C[C@@H]1O` [fillipin, filipin], the “effect on the increased transport of 14C-sucrose by sildenafil” value in data set [4] is “abolished”.
As to `CCCc1nn(C)c2c(=O)[nH]c(-c3cc(S(=O)(=O)N4CCN(C)CC4)ccc3OCC)nc12` [sildenafil], the “14C-sucrose transport across cells seeded in the transwell” value in data set [5] is recorded as “increased”. Also, in [6], the 14C-sucrose transport entry was “significantly increased”. Besides, in data set [7] (rat, in vivo), the “dose giving maximal effect on permeability” value came to 50 mg/kg, the “increase in BTB permeability” value was found to be 1.8 fold and the “time of maximum transport across the BTB into tumor tissues after administration” value was 60 min. Also, in [8], the “reduction in mean-arterial blood pressure” value stood at 10% and the “detectable side effects (e.g. hypotension)” value (from here on “detectable side effects”) is “did not result in any detectable side effects”. Besides, the “arterial blood pH, carbon dioxide, and partial pressure of oxygen” value (“arterial blood pH, carbon dioxide” for short) in data set [8] (setting [13]) is “not changed significantly”. Also, the “detectable side effects” value in data set [8] (listed as Viagra®) is listed as “did not induce hypotension”. Moreover, the “14C-sucrose transport across cells seeded in the transwell” value in data set [9] was “increased”. Further, the 14C-sucrose transport entry in data set [10] is given as “significantly increased”.
For the compound `CCCc1nc(C)c2c(=O)[nH]c(-c3cc(S(=O)(=O)N4CCN(CC)CC4)ccc3OCC)nn12` [vardenafil], the “plasma cGMP level” value was found to be 54.96 ± 25.13 pg/mL in [11] (30 minutes after oral vardenafil 10 mg/kg, control 0.72±0.48); 79.20 ± 37.36 pg/mL in data set [11] (60 minutes after oral vardenafil 10 mg/kg); 30.13 ± 17.82 pg/mL in [11] (90 minutes after oral vardenafil 10 mg/kg). Besides, in data set [11] (oral vardenafil 10 mg/kg), the “time of peak plasma cGMP concentration” value was 60 min. Moreover, in data set [12], the “time at which tumor cGMP immunostaining returned to the baseline” value was found to be 90 min. Also, the “reduction in mean-arterial blood pressure” value in [8] was determined as 10%. Further, the “arterial blood pH, carbon dioxide” value in data set [8] (setting [13]) was “not changed significantly”. Moreover, the “detectable side effects” value in data set [8] was “did not result in any detectable side effects”; in data set [8] (listed as Levitra®), “did not induce hypotension”. Further, the “Mean Survival Days, Mean” value in [1] was determined as 22.7 days. Moreover, in data set [2], the mean survival time is 35 ± 1 days.
Take RPPGFSPFR [BK, Bradykinin]: the “arterial blood pH, carbon dioxide” value in [8] (rat, in vivo, po) is “not changed significantly”.
Turning to “iberiotoxin (QFTDVDCSVSKECWSVCKDLFGVDRGKCMGKKCRCYQ; UniProt P24663 1-37, looked up)”, the “effect on vardenafil-induced BTB transport increase” value in data set [7] (iberiotoxin 0.26 μg/kg/min infused 15 min with oral vardenafil 10 mg/kg) is “abolished”.
